# Reference: patent US8653083B2, “Hedgehog pathway antagonists to treat disease” (The Johns Hopkins University, priority 2005, dated 2014)
# Counter-ions that a name gives are not always drawn.
# Tested on: Sonic hedgehog (Shh) signaling
# Assay: Cultured cell based Sonic hedgehog (Shh) signaling assay, luciferase reporter
# Conditions: not given
# Procedure: A library of drugs was previously tested in humans for agents that antagonize Hedgehog signaling. […] The assays used for the screen for Hh pathway antagonists proceeded essentially as described in reference 5. Briefly, each candidate compound was added at 10 uM to a cultured cell based Sonic hedgehog (Shh) signaling assay in high through-put format. This assay utilized cells with a stably integrated firefly luciferase reporter that is responsive to ShhN signaling. These cells also contain a stably integrated, constitutively expressed Renila luciferase gene that can be used for normalization of response to Shh, and used also to monitor cell health.
row,SMILES,IC50 [nM]
1,COc1cc2c(c(OC)c1OC)-c1ccc(=O)c(O)cc1[C@@H](NC(C)=O)CC2 [COLCHICEINE],300 to 1000
2,C[C@@H]1C[C@@H]([C@H](O)CC2CC(=O)NC(=O)C2)C(=O)[C@@H](C)C1 [Cycloheximide],300 to 1000
3,CC1=C2C[C@H]3[C@@H](CC=C4C[C@@H](O)CC[C@@]43C)[C@@H]2CC[C@]12O[C@@H]1C[C@H](C)CN[C@H]1[C@H]2C [Cyclopamine],300 to 1000
4,C=C(C)[C@H]1Cc2c(ccc3c2O[C@@H]2COc4cc(OC)c(OC)cc4[C@@H]2C3=O)O1 [ROTENONE],1000 to 3000

# Same assay, conditions: Hh pathway inhibition; cells with ShhN-responsive firefly luciferase reporter, normalized to Renila luciferase; titration of 10 uM hits; read-out: IC50
row,SMILES,IC50 [nM]
1,"CCC(C)n1ncn(-c2ccc(N3CCN(c4ccc(OCC5COC(Cn6cncn6)(c6ccc(Cl)cc6Cl)O5)cc4)CC3)cc2)c1=O (racemic) [Itraconazole, (±)-cis-4-[4-[4-[4-[[2-(2,4-dichlorophenyl)-2-(1H-1,2,4-triazol-1-yl-methyl)-1,3-dioxolan-4-yl)methoxy]phenyl]-1-piperazinyl]phenyl]-2,4-dihydro-2-(1-methylpropyl)-3H-1,2,4-triazol-3-one]",300
2,Nc1ncn([C@@H]2O[C@H](CO)[C@@H](O)[C@H]2O)c(=O)n1 [5-AZACYTIDINE],1000 to 3000
3,CN(C)CCC=C1c2ccccc2CCc2ccccc21 [Amitriptyline],1000 to 3000
4,COc1ccc(C[C@H]2NC[C@H](O)[C@H]2OC(C)=O)cc1 [Anisomycin],< 100
5,C=C1C(=O)O[C@H]2C[C@@H]1C(OC(C)=O)C/C(C)=C/CC/C(C)=C/CC[C@@]2(C)O (some centres unmarked) [CRASSIN ACETATE],1000 to 3000
6,"Cc1ccc2c(Cl)cc(Cl)c(O)c2n1 [Chlorquinaldol, 5,7-Dichloro-2-methyl-8-quinolinol]",3000
7,CN1CCN(C2=Nc3ccccc3Sc3ccc(Cl)cc32)CC1 [Clothiapine],1000 to 3000
8,C[C@H]1[C@@H](O)O[C@@H]2O[C@@]3(C)CC[C@H]4[C@H](C)CC[C@@H]1[C@@]24OO3 [DIHYDROARTEMISIMIN],1000 to 3000
9,CCOC(=O)NC1=C(N2CC2)C(=O)C(NC(=O)OCC)=C(N2CC2)C1=O [Diaziquone],300 to 1000
10,CC(=O)Oc1ccc2c(c1)CC[C@@H]1[C@@H]2CC[C@]2(C)[C@@H](O)CC[C@@H]12 [ESTRADIOL ACETATE],1000 to 3000
11,CC12CCC(CC1)C(C)(C)O2 [Eucalyptol],300 to 1000
12,OCCOCCN1CCN(C(c2ccccc2)c2ccc(Cl)cc2)CC1 (centres unmarked) [Hydroxyzine],300 to 1000
13,CN(C)CCCN1c2ccccc2CCc2ccccc21 [Imipramine],1000 to 3000
14,CN1CCN(C2=Nc3ccccc3Oc3ccc(Cl)cc32)CC1 [LOXAPINE SUCCINATE],100 to 300
15,CC[C@H]1/C=C/C=C/C[C@@H](C)[C@H](O)[C@@](C)(O)C(=O)[C@@H](C)[C@H](O)[C@@H](C)C(=O)[C@@H](C)[C@H](O)[C@@H](C)/C=C/C(=O)O[C@@H]2[C@H](C)[C@H](CC1)O[C@]1(CC[C@H](C)[C@H](C[C@@H](C)O)O1)[C@H]2C [OLIGOMYCIN],< 100
16,CC(COc1ccccc1)N(CCCl)Cc1ccccc1 (centres unmarked) [PHENOXYBENZAMINE HYDROCHLORIDE],1000 to 3000
17,CN1CCC(=C2c3ccccc3Sc3ccccc32)CC1 [PIMETHIXENE MALEATE],300 to 1000
18,CN(C)CCCN1c2ccccc2Sc2ccccc21 [PROMAZINE HYDROCHLORIDE],1000 to 3000
19,CC(CN1c2ccccc2Sc2ccccc21)N(C)C (centres unmarked) [PROMETHAZINE HYDROCHLORIDE],300 to 1000
20,O=C(c1ccc(OCCN2CCCCC2)cc1)c1c(-c2ccc(O)cc2)sc2cc(O)ccc12 [Raloxifene hydrochloride],1000 to 3000
21,"CC[C@@H](C(=O)[C@@H](C)[C@@H](O)[C@H](C)[C@@H]1O[C@@H]([C@@H](CC)C(=O)O)CC[C@@H]1C)[C@H]1O[C@]2(C=C[C@@H](O)[C@]3(CC[C@@](C)([C@H]4CC[C@](O)(CC)[C@H](C)O4)O3)O2)[C@H](C)C[C@@H]1C [SALINOMYCIN, SODIUM]",< 100
22,Nc1ccc(S(=O)(=O)Nc2cnc3ccccc3n2)cc1 [SULFAQUINOXALINE SODIUM],300 to 1000
23,Cc1cc(NS(=O)(=O)c2ccc(N)cc2)nc(C)n1 [Sulfisomidine],300 to 1000
24,CC(CN(C)C)CN1c2ccccc2CCc2ccccc21 (centres unmarked) [TRIMIPRAMINE MALEATE],1000 to 3000
25,CC[C@]1(O)C[C@@H]2CN(CCc3c([nH]c4ccccc34)[C@@](C(=O)OC)(c3cc4c(cc3OC)N(C)[C@H]3[C@@](O)(C(=O)OC)[C@H](OC(C)=O)[C@]5(CC)C=CCN6CC[C@]43[C@@H]65)C2)C1 [Vinblastine sulfate],300 to 1000
26,CC[C@]1(O)C[C@H]2CN(CCc3c([nH]c4ccccc34)[C@@](C(=O)OC)(c3cc4c(cc3OC)N(C=O)[C@H]3[C@@](O)(C(=O)OC)[C@H](OC(C)=O)[C@]5(CC)C=CCN6CC[C@]43[C@@H]65)C2)C1 [Vincristine sulfate],< 100
27,CC[C@]1(O)C[C@@H]2CN(CCc3c([nH]c4ccccc34)[C@@](C(=O)OC)(c3cc4c(cc3OC)N(C)[C@H]3[C@@](O)(C(N)=O)[C@H](O)[C@]5(CC)C=CCN6CC[C@]43[C@@H]65)C2)C1 [Vindesine],< 100
28,CCC1=C[C@@H]2CN(C1)Cc1c([nH]c3ccccc13)[C@@](C(=O)OC)(c1cc3c(cc1OC)N(C)[C@H]1[C@@](O)(C(=O)OC)[C@H](OC(C)=O)[C@]4(CC)C=CCN5CC[C@]31[C@@H]54)C2 [Vinorelbine tartrate],< 100
29,c1cc(CN2CCCCC2)cc(OCCCNc2nc3ccccc3s2)c1 [Zolantidine],1000 to 3000

# Tested on: AT6.3 metastasis model
# Assay: AT6.3 Dunning prostate cancer metastasis model, survival
# Type: in vivo, mice
# Conditions: cyclopamine comparator, dose not given
row,SMILES,survival
1,CC1=C2C[C@H]3[C@@H](CC=C4C[C@@H](O)CC[C@@]43C)[C@@H]2CC[C@]12O[C@@H]1C[C@H](C)CN[C@H]1[C@H]2C [Cyclopamine],extending survival

# Tested on: 22RV1 xenografts
# Assay: 22RV1 human prostate cancer xenografts in athymic mice, tumor growth
# Type: in vivo
# Conditions: itraconazole 37.5 mg/kg
row,SMILES,tumor volume change [% volume]
1,"CCC(C)n1ncn(-c2ccc(N3CCN(c4ccc(OCC5COC(Cn6cncn6)(c6ccc(Cl)cc6Cl)O5)cc4)CC3)cc2)c1=O (racemic) [Itraconazole, (±)-cis-4-[4-[4-[4-[[2-(2,4-dichlorophenyl)-2-(1H-1,2,4-triazol-1-yl-methyl)-1,3-dioxolan-4-yl)methoxy]phenyl]-1-piperazinyl]phenyl]-2,4-dihydro-2-(1-methylpropyl)-3H-1,2,4-triazol-3-one]",−100
